Data from ChEMBL document CHEMBL5120764, “Isarubrolone C Promotes Autophagic Degradation of Virus Proteins via Activating ATG10S in HepG2 Cells” (J Nat Prod, 2022).
The source made the active and inactive calls.

Tests used:
Type in all cases: functional, cell-based
HepG2 [1] = experiment: Induction of autophagy in human HepG2 cells transfected with HCV sub-replicon assessed as decrease in HCV-NS5B protein level upto 10 uM and measured after 6 hrs by western blot analysis; settings: DDE = dose-dependent effect
HepG2 [2] = experiment: Induction of autophagy in human HepG2 cells transfected with HIV-RT assessed as decrease in HIV-RT protein level upto 10 uM and measured after 6 hrs by western blot analysis; settings: DDE = dose-dependent effect
HepG2 [3] = experiment: Induction of autophagy in human HepG2 cells assessed as […] in LC3B marker expression level upto 10 uM and measured after 6 hrs by western blot analysis; settings: DDE = dose-dependent effect
HepG2 [4] = experiment: Effect on HIV-RT degradation in human HepG2 cells transfected with HIV-RT at 10 uM pretreated with proteosome inhibitor MG132 for 12 hrs followed by compound addition and measured after 24 hrs by western blot analysis
HepG2 [5] = experiment: Effect on LC3B-II protein degradation in human HepG2 cells at 10 uM pretreated with proteosome inhibitor MG132 for 12 hrs followed by compound addition and measured after 24 hrs by western blot analysis
HepG2 [6] = experiment: Induction of autophagy in human HepG2 cells transfected with HCV subgenomic replicon assessed as HCV-NS5B/LAMP2 combination at 10 uM incubated for 24 hrs in presence of anti-LAMP2 antibodies by co-immunoprecipitation assay
HepG2 [7] = experiment: Induction of autophagy in human HepG2 cells transfected with HCV subgenomic replicon assessed as HCV-NS5B/ATG10/ATG10S combination at 10 uM incubated for 24 hrs in presence of anti-LAMP2 antibodies by co-immunoprecipitation assay
HepG2 [8] = experiment: Induction of autophagy in human HepG2 cells transfected with HCV subgenomic replicon assessed as HCV-NS5B/LC3B combination at 10 uM incubated for 24 hrs in presence of anti-LAMP2 antibodies by co-immunoprecipitation assay
HepG2 [9] = experiment: Downregulation of HCV-NS5B in human HepG2 cells co-transfected with HCV-subreplicon and ATG10-misMO upto 10 uM incubated for 24 hrs by western blot analysis
HepG2 [10] = experiment: Downregulation of HIV-RT in human HepG2 cells co-transfected with HIV-RT and ATG10-misMO upto 10 uM incubated for 24 hrs by western blot analysis
HepG2 [11] = experiment: Downregulation of HCV-NS5B in human HepG2 cells transfected with HCV-subreplicon upto 10 uM incubated for 24 hrs by western blot analysis
HepG2 [12] = experiment: Downregulation of HCV-CORE in human HepG2 cells transfected with HCV-subreplicon upto 10 uM incubated for 24 hrs by western blot analysis
HepG2 [13] = experiment: Downregulation of ZIKV-NS5 in human HepG2 cells transfected with ZIKV-NS5 upto 10 uM incubated for 24 hrs by western blot analysis
HepG2 [14] = experiment: Downregulation of HIV-RT in human HepG2 cells transfected with HIV-RT upto 10 uM incubated for 24 hrs by western blot analysis
HepG2 [15] = experiment: Upregulation of endogenous ATG10S activated co-localisation of ZIKV-NS5 with LC3B in human HepG2 cells co-transfected with ZIKV-NS5 and ATG10-misMO by cellular immunofluorescence assay
HepG2 [16] = experiment: Upregulation of endogenous ATG10S activated co-localisation of ZIKV-NS5 with LAMP2 in human HepG2 cells co-transfected with ZIKV-NS5 and ATG10-sMO by cellular immunofluorescence assay
HepG2 [17] = experiment: Upregulation of endogenous ATG10S activated co-localisation of HBx with LAMP2 in human HepG2 cells co-transfected with HBx and ATG10-misMO by cellular immunofluorescence assay
HepG2 [18] = experiment: Upregulation of IL28A mRNA expression level in human HepG2 cells transfected with HIV-RT upto 10 uM by qRT-PCR analysis; settings: DDE = dose-dependent effect
HepG2 [19] = experiment: Induction of autophagy in human HepG2 cells transfected with HBx assessed as increase in HBx-LC3B interaction level at 10 uM incubated for 24 hrs in presence of anti-Flag antibodies by co-immunoprecipitation assay
HepG2 [20] = experiment: Induction of autophagy in human HepG2 cells transfected with HBx assessed as increase in HBx-LAMP2 interaction level at 10 uM incubated for 24 hrs in presence of anti-Flag antibodies by co-immunoprecipitation assay
HepG2 [21] = experiment: Induction of autophagy in human HepG2 cells transfected with HIV-RT assessed as increase in HIV-RT-P62 interaction level at 10 uM incubated for 24 hrs in presence of anti-Flag antibodies by co-immunoprecipitation assay
HepG2 [22] = experiment: Induction of autophagy in human HepG2 cells transfected with HIV-RT assessed as increase in HIV-RT-LAMP2 interaction level at 10 uM incubated for 24 hrs in presence of anti-Flag antibodies by co-immunoprecipitation assay
HepG2 [23] = experiment: Induction of autophagy in human HepG2 cells transfected with HCV subgenomic replicon assessed as HCV-NS5B/LAMP2 combination at 10 uM incubated for 24 hrs in presence of anti-LC3B antibodies by co-immunoprecipitation assay
HepG2 [24] = experiment: Upregulation of ATG10/ATG10S mRNA level in human HepG2 cells transfected with ZIKV-NS5 upto 10 uM by RT-PCR analysis; settings: DDE = dose-dependent effect
HepG2 [25] = experiment: Upregulation of endogenous ATG10S activated co-localisation of HCV-NS5B with LC3B in human HepG2 cells co-transfected with HCV sub-replicon and ATG10-misMO by cellular immunofluorescence assay
HepG2 [26] = experiment: Upregulation of endogenous ATG10S activated co-localisation of HCV-NS5B with LAMP2 in human HepG2 cells co-transfected with HCV sub-replicon and ATG10-misMO by cellular immunofluorescence assay
HepG2 [27] = experiment: Upregulation of IL28A mRNA expression level in human HepG2 cells transfected with HBV-X upto 10 uM by qRT-PCR analysis; settings: DDE = dose-dependent effect
HepG2 [28] = experiment: Upregulation of HCV-NS5B in human HepG2 cells transfected with HCV sub-replicon and gene knockdown by IL28A morpholinos at 10 uM incubated for 24 hrs by western blot analysis
HepG2 [29] = experiment: Upregulation of LC3B in human HepG2 cells transfected with ZIKV-NS5 and gene knockdown by IL28A morpholinos at 10 uM incubated for 24 hrs by western blot analysis
HepG2 [30] = experiment: Upregulation of HIV-RT in human HepG2 cells transfected with HIV-RT and gene knockdown by IL28A morpholinos at 10 uM incubated for 24 hrs by western blot analysis
HepG2 [31] = experiment: Induction of autophagy in human HepG2 cells transfected with HCV subgenomic replicon and gene knockdown by IL28A morpholinos assessed as LC3B and LAMP2 interaction at 10 uM incubated for 24 hrs in presence of anti-LC3B antibodies by co-immunoprecipitation assay
HepG2 [32] = experiment: Induction of autophagy in human HepG2 cells transfected with HBV-X and gene knockdown by IL28A morpholinos assessed as LC3B and LAMP2 interaction at 10 uM incubated for 24 hrs in presence of anti-LC3B antibodies by co-immunoprecipitation assay

Measured: Activity

CC[C@@H](O)c1nc(C)cc2c1C(=O)c1cc(=O)c3c(c(O)c1-2)O[C@@H]1O[C@H](C)[C@@H](OC)[C@@H](O)[C@]31O
active: HepG2 [1] Dde | HepG2 [2] Dde | HepG2 [3] Dde | HepG2 [4] | HepG2 [5] | HepG2 [6] | HepG2 [7] | HepG2 [8] | HepG2 [9] | HepG2 [10] | HepG2 [11] | HepG2 [12] | HepG2 [13] | HepG2 [14] | HepG2 [15] | HepG2 [16] | HepG2 [17] | HepG2 [18] Dde | HepG2 [19] | HepG2 [20] | HepG2 [21] | HepG2 [22] | HepG2 [23] | HepG2 [24] Dde | HepG2 [25] | HepG2 [26] | HepG2 [27] Dde | HepG2 [28] | HepG2 [29] | HepG2 [30] | HepG2 [31] | HepG2 [32]
